According to patent publication US4820701A, “Penam derivatives” (Beecham Group p.l.c., priority 1987, dated 1989):
In brackets after ≈: the same amount, converted by molar mass. Counter-ions that a name gives are not always drawn.

Key:
Assay in all cases: MIC by serial dilution in agar
Type in all cases: cell-based
E. coli DC RTEM = conditions: Escherichia coli
Method: (§1) Minimum Inhibitory concentration (MIC) values of compounds of the invention against E. coli JT425 and DC RTEM, K. Pneumoniae T767 and P. aeruginosa 10662 and K79961. were determined by serial dilution in Iso-sensitest Agar (from Oxoid Ltd., Basingstoke, England). The plates were inoculated with 10^4 colony forming units and incubated overnight at 37° C. The MIC values recorded in Table 1 were the lowest concentration of antibiotic to inhibit growth. Comparative data for Piperacillin which is the compound 6β-[D-2-[(4-ethyl-2,3-dioxopiperazin-1-yl)carbonylamino]-2-phenylacetamido]-penicillanic acid, sodium salt and for the compound 6α-formamido-6β-[D-2-[(4-ethyl-2,3-dioxopiperazin-1-yl)carbonylamino]-2-phenylacetamido]-penicillanic acid, sodium salt (Compound A) disclosed in U.K. GB Pat. No.-2107307B, are also given.

E. coli JT 425 = conditions: Escherichia coli, JT425; Iso-sensitest Agar, 10^4 colony forming units, overnight at 37° C
Method: as §1

K. pneumoniae T767 = conditions: Klebsiella pneumoniae, Iso-sensitest Agar, 10^4 colony forming units, overnight at 37° C
Method: as §1

P. aeruginosa 10662 = conditions: Pseudomonas aeruginosa, Iso-sensitest Agar, 10^4 colony forming units, overnight at 37° C
Method: as §1

P. aeruginosa K79961 = conditions: Pseudomonas aeruginosa, Iso-sensitest Agar, 10^4 colony forming units, overnight at 37° C
Method: as §1

Compound	MIC (E. coli DC RTEM)	MIC (E. coli JT 425)	MIC (K. pneumoniae T767)	MIC (P. aeruginosa 10662)	MIC (P. aeruginosa K79961)
CCN1CCN(C(=O)N[C@@H](C(=O)N[C@]2(NC=O)C(=O)N3[C@@H](C(=O)O)C(C)(C)S[C@@H]32)c2ccccc2)C(=O)C1=O [Compound A, 6α-formamido-6β-[D-2-[(4-ethyl-2,3-dioxopiperazin-1-yl)carbonylamino]-2-phenylacetamido]-penicillanic acid, sodium salt, reference compound]	4 µg/mL	8 µg/mL	4 µg/mL	16 µg/mL	2 µg/mL
CCN1CCN(C(=O)N[C@@H](C(=O)N[C@]2(NC=O)C(=O)N3[C@@H](C(=O)O)[C@](C)(COC(=O)c4ccc(OC(C)=O)c(OC(C)=O)c4)S[C@@H]32)c2ccccc2)C(=O)C1=O [Example 1]	0.12 µg/mL (≈ 0.151 µM)	0.5 µg/mL (≈ 0.628 µM)	0.12 µg/mL (≈ 0.151 µM)	0.25 µg/mL (≈ 0.314 µM)	0.06 µg/mL (≈ 0.0753 µM)
CCN1CCN(C(=O)N[C@@H](C(=O)N[C@]2(NC=O)C(=O)N3[C@@H](C(=O)O)[C@](C)(COC(=O)c4ccc(O)c(O)c4)S[C@@H]32)c2ccccc2)C(=O)C1=O [Example 2, Sodium 6β-[R,2-(4-ethyl-2,3-dioxopiperazin-1-yl)carbonylamino-2-phenylacetamido]-6α-formamido-2β-(3,4-dihydroxybenzoyloxy)methyl-2α-methylpenam-3-carboxylate]	< 0.03 µg/mL	0.5 µg/mL	0.12 µg/mL	0.12 µg/mL	< 0.03 µg/mL
CCN1CCN(C(=O)N[C@@H](C(=O)N[C@@H]2C(=O)N3[C@@H]2S[C@@](C)(COC(=O)c2ccc(OC(C)=O)c(OC(C)=O)c2)[C@@H]3C(=O)O)c2ccccc2)C(=O)C1=O [Example 3, Sodium 2β-(3,4-diacetoxybenzoyloxy)methyl-6β-[R,2-(4-ethyl-2,3-dioxopiperazin-1-yl)carbonylamino-2-phenylacetamido]-2α-methylpenam-3-carboxylate]	4 µg/mL	1 µg/mL	0.25 µg/mL	< 0.03 µg/mL	< 0.03 µg/mL
CCN1CCN(C(=O)N[C@@H](C(=O)N[C@@H]2C(=O)N3[C@@H]2SC(C)(C)[C@@H]3C(=O)O)c2ccccc2)C(=O)C1=O [Piperacillin, 6β-[D-2-[(4-ethyl-2,3-dioxopiperazin-1-yl)carbonylamino]-2-phenylacetamido]-penicillanic acid, sodium salt, reference compound]	> 128 µg/mL	16 µg/mL	2 µg/mL	2 µg/mL	> 0.06 µg/mL
